Activity calls are given as the source filed them. No rule for the calls is given here.

Here are results for 9 compounds from PubChem BioAssay AID588845 (Broad Institute, 2011).

The subject of one assay is HMLE_shTWIST viability, CellTiter-Glo luminescence, 72 h. Description: cytotoxicity toward TWIST-knockdown HMLE cells – cell-based, CellTiter-Glo luminescence, dry powder, set 2, confirmation (AID 588845).
Conditions: not given
For the compound `Cc1csc(NC(=O)c2ccc(COc3cccc(Cl)c3)o2)n1`, the AC50 is 4.3 µM.

For the compound `CCc1ccc(/C=C/C(=O)NC2=NCCS2)cc1`, the half-maximal activity concentration (AC50) was 11.7 µM.

For the compound `Cc1csc(NC(=O)c2ccc(COc3cccc(F)c3)o2)n1`, the AC50 is 1.7 µM.

Turning to `Cc1csc(NC(=O)c2ccc(COc3ccccc3F)o2)n1`, the AC50 was 0.13 µM.

As to `Cc1csc(NC(=O)c2ccc(COc3ccccc3)o2)n1`, the half-maximal activity concentration (AC50) was 18.2 µM.

Test system in the next assay: not listed separately
The assay is described as above. The note with it: HMLE_shTWIST viability, CellTiter-Glo luminescence, 72 h; at 32 µM (top of the series).
Take `CC(C)c1ccc(/C=C/C(=O)NC2=NCCS2)cc1`: the viability fraction was 8.35% (inactive).

In the case of `O=C(/C=C/c1ccc(Cl)c(Cl)c1)NC1=NCCS1`, the viability fraction is 71.5% (inactive).

As to `COc1ccc(/C=C/C(=O)NC2=NCCS2)c(OC)c1`, the viability fraction is 58.2% (inactive).

With `O=C(/C=C/c1ccc(-c2ccccc2)cc1)NC1=NCCS1`, the viability fraction is 81.4% (inactive).
